Results from ChEMBL document CHEMBL1133966, “Substituted imidazoles as glucagon receptor antagonists” (Bioorg Med Chem Lett, 2001).

Experiments:
Glucagon receptor [1] = biological target: T1, Glucagon receptor (Homo sapiens, UniProt P47871); assay: Binding affinity towards human glucagon receptor in absence of Mg2+; conditions: concentration not given here
Glucagon receptor [2] = biological target: T1, Glucagon receptor; assay: Binding affinity towards human glucagon receptor in absence of Mg2+ expressed as IC50
Glucagon receptor [3] = biological target: T1, Glucagon receptor; assay: Affinity for human glucagon receptor in presence of Mg2+
MAP kinase p38 [4] = biological target: T2, MAP kinase p38 (Homo sapiens, UniProt O15264+Q15759+Q16539+P53778); assay: Binding affinity towards human Mitogen-activated protein kinase p38 expressed as IC50; assay type: protein assay
Glucagon receptor [5] = biological target: T1, Glucagon receptor; assay: Affinity for human glucagon receptor in absence of Mg2+; design: concentration or dose not given beside the values; conditions: concentration not given here
MAP kinase p38 [6] = biological target: T2, MAP kinase p38; assay: Inhibition of human Mitogen-activated protein kinase p38 at 40 uM; assay type: protein assay

T1 sequence (P47871 whole entry): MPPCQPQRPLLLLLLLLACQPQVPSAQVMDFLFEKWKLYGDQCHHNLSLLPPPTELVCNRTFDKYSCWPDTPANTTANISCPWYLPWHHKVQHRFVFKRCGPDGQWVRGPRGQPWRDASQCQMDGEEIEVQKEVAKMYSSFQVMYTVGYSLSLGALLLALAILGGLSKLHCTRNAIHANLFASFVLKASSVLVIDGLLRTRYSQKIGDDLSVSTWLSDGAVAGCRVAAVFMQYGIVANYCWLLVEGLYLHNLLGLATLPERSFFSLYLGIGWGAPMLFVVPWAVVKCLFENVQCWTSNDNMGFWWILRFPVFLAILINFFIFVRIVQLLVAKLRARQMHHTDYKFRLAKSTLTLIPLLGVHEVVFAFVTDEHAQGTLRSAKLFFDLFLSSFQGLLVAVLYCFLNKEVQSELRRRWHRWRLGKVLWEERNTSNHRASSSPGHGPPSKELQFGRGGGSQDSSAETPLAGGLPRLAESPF

Row | Structure (SMILES) | inhibition (Glucagon receptor [1]) | IC50 (Glucagon receptor [2]) | IC50 (Glucagon receptor [3]) | IC50 (MAP kinase p38 [4]) | inhibition (Glucagon receptor [5]) | inhibition (MAP kinase p38 [6])
1 | Fc1ccc(-c2nc(-c3ccccc3)[nH]c2-c2ccncc2)cc1 |  | > 20 µM |  |  |  | 
2 | CSc1ccc(-c2nc(-c3ccc(F)cc3)c(-c3ccncc3)o2)cc1 |  |  |  | 0.93 µM | -8% | 
3 | CSc1ccc(-c2nc(-c3ccc(F)cc3)c(-c3ccncc3)n2C)cc1 |  |  |  | 0.52 µM | 10% | 
4 | Fc1ccc(-c2[nH]c(-c3cccc(Br)c3)nc2-c2ccncc2)cc1 |  | 1.4 µM |  | 0.15 µM |  | 
5 | Brc1ccc(-c2nc(-c3ccccc3)c(-c3ccccc3)[nH]2)cc1 |  |  |  | 2.2 µM | 37% | 
6 | Fc1ccc(-c2[nH]c(-c3cc(Br)cs3)nc2-c2ccncc2)cc1 |  | 2.8 µM |  | 0.1 µM |  | 
7 | Fc1ccc(-c2[nH]c(-c3ccc(Br)o3)nc2-c2ccncc2)cc1 |  |  |  | 0.19 µM | < 20% | 
8 | Clc1ccc(-c2nc(-c3ccccc3Oc3ccccc3)c(-c3ccncc3)[nH]2)cc1 |  | 0.0065 µM | 0.29 µM | 0.15 µM |  | 
9 | Fc1ccc(-c2[nH]c(CCc3ccccc3)nc2-c2ccncc2)cc1 |  |  |  | 0.13 µM | < 20% | 
10 | Oc1ccc(-c2[nH]c(-c3ccc(Br)cc3)nc2-c2ccccc2)cc1 |  |  |  | 0.1 µM | 24% | 
11 | CSc1ccc(-c2nc(-c3ccncc3)c(-c3ccc(F)cc3)n2C)cc1 |  |  |  | 0.86 µM | 38% | 
12 | Brc1ccc(-c2nc(-c3ccccc3)c(-c3ccncc3)[nH]2)cc1 |  | 0.782 µM |  | 0.04 µM |  | 
13 | Fc1ccc(-c2[nH]c(-c3ccc(Br)s3)nc2-c2ccncc2)cc1 |  | 2.2 µM |  | 0.11 µM |  | 
14 | Clc1ccc(-c2nc(-c3cccc(-c4ccccc4)c3)c(-c3ccncc3)[nH]2)cc1 |  | 0.061 µM | > 3 µM | 0.59 µM |  | 
15 | Fc1ccc(-c2[nH]c(-c3ccccc3Br)nc2-c2ccncc2)cc1 | < 20% |  |  | 0.09 µM |  | 
16 | Fc1ccc(-c2[nH]c(-c3ccc(-c4ccccc4)cc3)nc2-c2ccncc2)cc1 |  | 10 µM |  | 0.3 µM |  | 
17 | Clc1ccc(-c2nc(-c3cccc(Oc4ccccc4)c3)c(-c3ccncc3)[nH]2)cc1 |  | 0.013 µM | 0.15 µM | 0.22 µM |  | 
18 | Fc1ccc(-c2[nH]c(-c3cccc4ccccc34)nc2-c2ccncc2)cc1 |  | 1.5 µM |  | 0.34 µM |  | 
19 | Cc1cnccc1-c1[nH]c(-c2ccc(Cl)cc2)nc1-c1ccc(F)cc1 |  | 1.1 µM |  | 0.02 µM |  | 

Other lines, results leading:

Row | inhibition (Glucagon receptor [1]) | IC50 (Glucagon receptor [2]) | IC50 (Glucagon receptor [3]) | IC50 (MAP kinase p38 [4]) | inhibition (Glucagon receptor [5]) | inhibition (MAP kinase p38 [6]) | Structure (SMILES)
20 | < 20% |  |  |  |  |  | Oc1ccc(-c2nc(-c3ccc(F)cc3)c(-c3ccncc3)[nH]2)cc1
21 |  | 0.13 µM | 0.75 µM | 0.14 µM |  |  | Clc1ccc(-c2nc(-c3ccc(I)cc3)c(-c3ccncc3)[nH]2)cc1
22 |  | 0.13 µM | 3.4 µM | > 10 µM |  |  | CC(C)(C)c1ccc(-c2[nH]c(-c3ccc(Cl)cc3)nc2-c2ccncc2)cc1
23 |  | 0.4 µM | 3.2 µM | 0.08 µM |  |  | Fc1ccc(-c2[nH]c(-c3ccc(Cl)cc3)nc2-c2ccncc2)cc1
24 |  | 0.14 µM | 3.8 µM | 3.3 µM |  |  | Clc1ccc(-c2nc(-c3ccc(-c4ccccc4)cc3)c(-c3ccncc3)[nH]2)cc1
25 |  |  |  | 0.05 µM | 38% |  | Cc1cc(-c2[nH]c(-c3ccc(Cl)cc3)nc2-c2ccc(F)cc2)ccn1
26 |  | 8 µM |  | 0.21 µM |  |  | N#Cc1ccc(-c2nc(-c3ccncc3)c(-c3ccc(F)cc3)[nH]2)cc1
27 |  | 0.51 µM |  | 0.1 µM |  |  | Fc1ccc(-c2[nH]c(-c3ccc(I)cc3)nc2-c2ccncc2)cc1
28 |  | 0.7 µM |  | 0.28 µM |  |  | CC(C)c1ccc(-c2nc(-c3ccc(F)cc3)c(-c3ccncc3)[nH]2)cc1
29 |  | 1.3 µM |  | 0.09 µM |  |  | Cc1ccc(-c2nc(-c3ccc(F)cc3)c(-c3ccncc3)[nH]2)cc1
30 |  | 0.074 µM | 0.15 µM | > 10 µM |  |  | CCCCc1ccc(-c2[nH]c(-c3ccc(Cl)cc3)nc2-c2ccncc2)cc1
31 |  | 0.027 µM | 0.11 µM | 0.25 µM |  |  | Clc1ccc(-c2nc(-c3ccc(Oc4ccccc4)cc3)c(-c3ccncc3)[nH]2)cc1
32 |  | 0.19 µM | 2.2 µM | 0.023 µM |  |  | Clc1ccc(-c2nc(-c3ccc(Cl)cc3)c(-c3ccncc3)[nH]2)cc1
33 |  | 0.0065 µM | 0.053 µM |  |  | 20% | CCCCOc1ccc(-c2[nH]c(-c3ccc(Cl)cc3)nc2-c2ccncc2)c(OCCCC)c1
34 |  | 0.27 µM | 2.9 µM | 0.16 µM |  |  | Fc1ccc(-c2[nH]c(-c3ccc(Br)cc3)nc2-c2ccncc2)cc1
35 |  | 0.0085 µM | 0.11 µM | > 1 µM |  |  | CCCCOc1ccccc1-c1[nH]c(-c2ccc(Cl)cc2)nc1-c1ccncc1
36 |  | 0.013 µM | 0.12 µM | 2.4 µM |  |  | CCCOc1ccc(-c2[nH]c(-c3ccc(Cl)cc3)nc2-c2ccncc2)c(OCCC)c1
